Measured values reported in patent US20190077856A1, “METHOD OF TREATING DISEASES USING KINASE MODULATORS” (Memorial Sloan Kettering Cancer Center, priority 2016, published 2019).

Experiments:
JMN [1] = test: Cell surface HLA-A / HLA-ABC by flow cytometry (BB7, W6/32) after 72 hours; format: cell-based, human
Description: 1% DMSO was used as a vehicle control. […] Experimental setup was similar to FIG. 2A.

PC9 = test: Cell surface HLA-A by flow cytometry (BB7) after 72 hours with inhibitor; format: cell-based, human; details: PC9, activating EGFR mutation (del E746-A750)
Meso34 [2] = test: as above; format: cell-based, human; details: Meso34 without an EGFR mutation, same dose
[3] = tested on: NSCLC cell lines H827, H1975, H1299, A549; test: Surface HLA-ABC (MHC-I) on panel of NSCLC cell lines; format: cell-based, human; details: for surface MHC-I: cell lines that had the sensitizing mutation; for sensitivity to up-regulating surface MHC-I: cell lines with downstream activating RAS mutations
Description: (§1) 1% DMSO was used as a vehicle control. […] Use of ESK antibody to a peptide derived from the oncoprotein WT1 that is presented on HLA-A0201. […] PRAME is a TCRm antibody against an epitope of PRAME tumor antigen presented on HLA-A0201 on SKMEL5. Experimental setup was similar to FIG. 2A. […] FIG. 2D: Use of EGFRi erlotinib and afatanib, along with MEKi trametinib on H827 (EGFR E746del-A750 mutation), H1975 (L858R/T790M), H1299 (EGFR wt, NRAS Q61K), and A549 (EGFR wt/KRAS G12S) to alter surface HLA-ABC levels. Student's t-test was done to compare each treatment to vehicle control. *P values annotated as in FIG. 1E. […] FIG. 2F: H1299 cells were transduced with retroviral vectors expressing EGFR L858R and were analyzed for surface pan HLA-ABC using W6/32. […] The NRAS Q61K mutation was introduced into H827 and cells were treated with EGFRi or MEKi as done in FIG. 2G.
(§2) Small molecule inhibitor studies: Compounds were obtained from SelleckChem (Houston, Tx. USA). Drugs were used at sub-cytostatic doses by titration using the Cell Titer Glo assay (Promega). All drugs were used in vitro at indicated doses in 1% dimethyl sulfoxide (DMSO).
The mechanism by which the MAP kinase pathway suppresses levels of HLA-A is unknown. Given that many cancers have activating mutations in specific genes in the MAP kinase pathway, inhibition of the identified hits was investigated in cell lines harboring mutations in EGFR, or downstream in Ras. A panel of NSCLC cell lines with activating mutations in EGFR, such as the delE746-A750 in H827, or L858R/T790M mutation in H1975, was utilized. The delE746-A750 confers sensitivity to erlotinib, whereas the T790M confers resistance to erlotinib and other first generation EGFR inhibitors, but is sensitive to afatanib (Cross et al., 2014, Cancer Discov 4(9):1046-61). EGFR wild type NSCLC lines with downstream mutations, such as activating NRAS Q61K in H1299 or KRAS G12S in A549, were also utilized.

H827 = details: similar level of suppression of pERK
Description: as §1, §2

HLA-A and B2M protein = details: erlotinib (EGFRi), 72 hours
Description: The HLA-A and B2M promoter was cloned upstream of the Gaussian Luciferase (GLuc) gene. Secreted embryonic alkaline phosphatase (SEAP) under the CMV promoter was used as a normalization factor.

JMN [4] = test: ADCC assay (51Cr release) with TCR mimic antibody ESKM after trametinib; format: cell-based, human; details: 72 hours trametinib, non-cytotoxic dose
Experimental: (§3) Cells were incubated for 72 hours with either vehicle control or trametinib and subsequently exposed to either isotype antibody or ESKM in ADCC assay. FIG. 3B depicts an ADCC assay on Meso34 (human mesothelioma). The experimental setup was similar to FIG. 3A. FIG. 3C depicts an ADCC assay on SKMEL5 (human melanoma) using TCRm mAb PRAME against the PRAME epitope; the experimental setup was similar to FIG. 3A. FIG. 3D: B16F10 cells were exposed to pmel-1 (gp100) specific TCR T-cells for 24 hours, then killing was assessed using a clonogenic assay described previously (Budhu et al. 2010, J Exp Med 207:223-235)
(§4) ADCC: The HLA-A*02:01 positive mesothelioma cell lines JMN and Meso34, along with the melanoma cell line SK-MELS were used in the ADCC assay as a target (May et al. 2007, Clin Cancer Res 13:4547-4555) . Antibodies ESKM (Veomett et al., 2014, Clin Cancer Res 20(15):4036-4046), PRAME, or its isotype control hIgG1 at 3 ug/ml were incubated with target cells and fresh healthy donor PBMCs at different effector/target ratios for 6 hours, along with indicated doses of vehicle or trametinib in RPMI (Roswell Park Memorial Institute medium) supplemented with 10% fetal bovine serum (FBS). The supernatant was harvested, and the cytotoxicity was measured by a ^51Cr release assay (Perkin Elmer).

Meso34 [5] = test: as above; format: cell-based, human; details: 72 hours trametinib, non-cytotoxic dose
Experimental: as §3, §4

SK-MEL-5 = test: ADCC assay (51Cr release) with TCR mimic mAb Pr20m (PRAME) after trametinib; format: cell-based, human
Experimental: as §3, §4

pERK = test: Titration of MEK inhibition by western blot for pERK and ERK; format: cell-based, human; details: JMN and Meso34 cells; time=1 hour
Description: (§5) It was hypothesized that the inhibition of the MAP kinase pathway might act on other components of the antigen presentation machinery in addition to MHC-I molecules, thus allowing increased epitope expression in the more abundant cell surface HLA molecules.

JMN [6] = test: Time course of MEK inhibition and HLA-A / B2M protein, western blot; format: cell-based, human; details: 50 nM trametinib
Experimental: FIG. 11: JMN was treated with 50 nM trametinib and lysate was analyzed as in FIG. 4C at different time points.
as §5

## CN(C)C/C=C/C(=O)Nc1cc2c(Nc3ccc(F)c(Cl)c3)ncnc2cc1O[C@H]1CCOC1 [afatanib]
JMN [1]; 72 hours, BB7 binding
  HLA-A up-regulation response: responded
PC9
  HLA-A up-regulation response: responded
Meso34 [2]
  HLA-A up-regulation response: did not respond
[3]
  surface MHC-I: up-regulated
  sensitivity to up-regulating surface MHC-I: not observed

## C#Cc1cccc(Nc2ncnc3cc(OCCOC)c(OCCOC)cc23)c1 [erlotinib]
[3]
  surface MHC-I: up-regulated
  sensitivity to up-regulating surface MHC-I: not observed
H827
  surface MHC-I response compared with MEKi by trametinib: responded more strongly
HLA-A and B2M protein
  HLA-A and B2M protein: dose dependent increase

## CC(=O)Nc1cccc(-n2c(=O)n(C3CC3)c(=O)c3c(Nc4ccc(I)cc4F)n(C)c(=O)c(C)c32)c1 [trametinib]
JMN [4]
  cytotoxicity of ESKM (ADCC): increased
Meso34 [5]
  cytotoxicity of ESKM (ADCC): increased
SK-MEL-5
  increased cytotoxicity of Pr20m mAb (ADCC): also observed
pERK
  dose to which cells were sensitive (pERK inhibition): less than 10 nM
JMN [6]
  time of maximal increases of HLA-A and B2M: 72 h
  time of maximal inhibition of MEK: 3 h

## EGF: epidermal growth factor, EGF protein that turns on EGFR (NSDSECPLSHDGYCLHDGVCMYIEALDKYACNCVVGYIGERCQYRDLKWWELR; Epidermal growth factor; UniProt P01133 971-1023, looked up)
JMN [1]; 10 nM EGF for 72 hours
  surface HLA-A: suppressed
  surface HLA-A,B,C: suppressed
